Results published in PMC5602130, “Food and Sex-Related Impacts on the Pharmacokinetics of a Single-Dose of Ginsenoside Compound K in Healthy Subjects” (Frontiers in Pharmacology, 2017).
Like-named read-outs stand apart in the source and are kept apart here. Marks after values point to notes of the source that are not given here.

Columns and labels:
[1] = set-up: method as in unpublished; conditions: single oral dose at 800 mg; ref unpublished; cited from earlier work
[2] = Food-effect two-period crossover trial: plasma pharmacokinetics after a single 200 mg oral dose of Ginsenoside CK Tablets; type: in vivo, human; conditions: for AUC(0-inf) / AUC(0-t) / Tmax / Cmax / half-life / MRT inf / MRT last: human, plasma, po, 200 mg; for AUC(0-inf) / AUC(0-t) / Tmax / Cmax / half-life / MRT inf / MRT last / V/F: single oral 200 mg CK; for Tmax: median (range); for Cmax: read-out: Cmax; for half-life: read-out: t1/2 (converted)
Protocol: The food-effect trial was an open-label, randomized, two-period, two-treatment crossover trial, carried out from 15 January to 31 March 2015. Subjects (n = 24) were admitted to the clinical facility (Center of Clinical Pharmacology, the Third Xiangya Hospital, Central South University, Changsha, China) and randomized to receive a single 200 mg oral dose of Ginsenoside CK Tablets (4 × 50 mg tablets) either after a 10 h-fasting period or within 30 min after beginning the consumption of a recommended high-fat, high calorie breakfast (150 calories of protein, 250 calories of carbohydrates, 500 to 600 calories of fat; total calories approximately 800–1,000). Tablets were administered with 250 mL of water, to each subject, in each treatment period. Drinking was prohibited for 2 h before and after medication. Apart from this, the amount and time of drinking were not strictly controlled. Subjects had unified, standard meals 4 and 10 h after drug administration. The alternate treatment was conducted after a 14-day washout period.
Serial blood samples (5 mL) for PK assessment were collected from an indwelling catheter or by direct venipuncture prior to the administration (t = 0) and 0.25, 0.5, 1, 1.5, 2, 2.5, 3, 3.5, 4, 5, 6, 8, 12, 24, 36, 48, 72, and 96 h after the administration of ginsenoside CK. We inferred that these sampling times were sufficient for this trial, based on international guidelines (FDA, [2003]; CFDA, [2005]) and our previous results, since the sampling time is longer than at least three terminal half-lives of the drug. Additionally, the mean plasma concentrations of both CK and 20(S)-PPD at 96 h were considerably <1/20 of their Cmax even when the single oral dose at 800 mg (unpublished). Plasma was separated in blood collection tubes by centrifugation (3,000 rpm, 10 min) at 4°C within 1 h after sampling, transferred to labeled storage tubes and stored at −70°C pending workup and analysis.
Descriptive statistics of PK parameters were calculated using established non-compartmental methods, utilizing the WinNonLin version 6.1 software (Pharsight Corporation, USA). The PK parameters determined for each participant included apparent terminal half-life (t1/2), maximum plasma concentration (Cmax), time to Cmax (tmax), area under the plasma concentration-time curve from the time of administration up to the last time point with a measurable concentration post-dose (AUClast), AUC extrapolated to infinity (AUCinf), apparent volume of distribution (V/F), apparent plasma clearance (CL/F) after extravascular administration, mean residence time (MRTlast and MRTinf), and the cumulative excretion rate from urine. The t1/2 was estimated as (ln2)/K, where K represented the slope of the terminal phase of plasma concentration-time profile and was assessed with a weighting factor of 1, using least squares (log-linear regression of at least three data points). The Cmax and tmax were obtained from experimental observations. The values of AUC were calculated using conventional trapezoidal and log-trapezoidal methods and the extrapolated area (Rowland and Tozer, [1995]). CL/F and V/F were calculated as dose/AUCinf and (CL/F)/K, respectively. MRT was calculated as MRT = AUMC/AUC, where AUMC is the area under the first moment curve. The cumulative excretion rate was calculated as the amount of unchanged drug over a time interval in the urine divided by dose, and was expressed as a percentage.
All samples were detected using a LC-MS/MS (API 4000, ABI Company, USA) method, validated at the Institute of Clinical Pharmacology, Central South University (Changsha, China). Concentrations of CK and 20(S)-PPD were measured using a triple quadrupole tandem mass spectrometer in multiple reaction monitoring (MRM) mode, via a positive electrospray ionization source at m/z 621.4→ 160.8 for the CK and m/z 461.5→425.3 for 20(S)-PPD, with a dwell time of 200 ms. […]

[3] = geometric mean ratio FO vs. HF, n = 24

Compound: CC(C)=CCC[C@](C)(O)C1CC[C@]2(C)C1[C@H](O)CC1[C@@]3(C)CC[C@H](O)C(C)(C)C3CC[C@]12C (stereo partly drawn) [20(S)-PPD, 20(S)-protopanaxadiol]
- Mean plasma concentration at 96 h as fraction of Cmax [1]: < 1/20
- lgAUClast GMR (90%CI) ([2]; FO vs. HF (Female), n = 12): 1.83 (1.27–2.64)
- lgCmax GMR (90%CI) ([2]; FO vs. HF (Female), n = 12): 1.98 (1.47–2.66)
- lgAUClast GMR (90%CI) ([2]; FO vs. HF (Male), n = 12): 1.08 (0.69–1.70)
- lgCmax GMR (90%CI) ([2]; FO vs. HF (Male), n = 12): 1.12 (0.74–1.70)
- lgAUClast GMR (90%CI) ([2]; M vs. F (FO), n = 12): 0.34 (0.15–0.75)
- lgCmax GMR (90%CI) ([2]; M vs. F (FO), n = 12): 0.48 (0.23–0.99)
- lgAUClast GMR (90%CI) ([2]; M vs. F (HF), n = 12): 0.57 (0.23–1.41)
- lgCmax GMR (90%CI) ([2]; M vs. F (HF), n = 12): 0.84 (0.38–1.84)
- AUC(0-inf) ([2]; both sexes, FO, all subjects): 228 ± 96.1 ng·h/mL
- AUC(0-t) ([2]; both sexes, FO, all subjects): 161 ± 114 ng·h/mL
- AUC(0-inf) ([2]; both sexes, HF, all subjects): 163 ± 95.4 ng·h/mL
- AUC(0-t) ([2]; both sexes, HF, all subjects): 116 ± 97.1 ng·h/mL
- Tmax ([2]; female, FO): 26 h
- Tmax ([2]; female, HF): 26 h
- Cmax ([2]; female, FO, female): 6.4 ± 2.7 ng/mL
- half-life ([2]; female, FO, female): 19.9 ± 5.5 h
- Cmax ([2]; female, HF, female): 3.5 ± 2.1 ng/mL
- half-life ([2]; female, HF, female): 21.2 ± 7.6 h
- MRT inf ([2]; female, FO): 40.7 ± 7.5 h
- MRT last ([2]; female, FO): 36.3 ± 6.8 h
- MRT inf ([2]; female, HF): 46.7 ± 8.6 h
- MRT last ([2]; female, HF): 37.5 ± 5.8 h
- AUC(0-inf) ([2]; female, FO): 225 ± 86.4 ng·h/mL
- AUC(0-t) ([2]; female, FO): 203 ± 88.8 ng·h/mL
- AUC(0-inf) ([2]; female, HF): 154 ± 99.5 ng·h/mL
- AUC(0-t) ([2]; female, HF): 132 ± 97.4 ng·h/mL
- lgAUClast GMR (90%CI) [2, 3]: 1.41 (1.05–1.88)
- lgCmax GMR (90%CI) [2, 3]: 1.49 (1.15–1.93)
- Tmax ([2]; FO, all subjects): 24.5 h
- Tmax ([2]; HF, all subjects): 26 h
- half-life ([2]; FO (fasting overnight), all subjects): 19.3 ± 6 h
- Cmax ([2]; FO, all subjects): 5.7 ± 3.8 ng/mL
- half-life ([2]; HF (high-fat meal), all subjects): 21.2 ± 9.8 h
- Cmax ([2]; HF, all subjects): 3.7 ± 3 ng/mL
- MRT inf ([2]; FO, all subjects): 38.5 ± 9.7 h
- MRT last ([2]; FO, all subjects): 31.7 ± 8.4 h
- MRT inf ([2]; HF, all subjects): 45.1 ± 9.5 h
- MRT last ([2]; HF, all subjects): 33.8 ± 6.9 h
- Tmax ([2]; male, FO): 23 h
- Tmax ([2]; male, HF): 26 h
- Cmax ([2]; male, FO, male): 4.9 ± 4.7 ng/mL
- half-life ([2]; male, FO, male): 18.2 ± 7.1 h
- Cmax ([2]; male, HF, male): 3.9 ± 3.8 ng/mL
- half-life ([2]; male, HF, male): 21.2 ± 13.7 h
- MRT inf ([2]; male, FO): 34.5 ± 12.5 h
- MRT last ([2]; male, FO): 27 ± 7.4 h
- MRT inf ([2]; male, HF): 42.2 ± 11.1 h
- MRT last ([2]; male, HF): 30.2 ± 5.9 h
- AUC(0-inf) ([2]; male, FO): 234 ± 121 ng·h/mL
- AUC(0-t) ([2]; male, FO): 120 ± 124 ng·h/mL
- AUC(0-inf) ([2]; male, HF): 178 ± 94.2 ng·h/mL
- AUC(0-t) ([2]; male, HF): 100 ± 98.5 ng·h/mL
- V/F ([2]; FO, all subjects): 30,348 ± 22,300^a L
- V/F ([2]; FO, female): 33,100 ± 27,003^c L
- V/F ([2]; FO, male): 25,304 ± 9,268^b L
- V/F ([2]; HF, all subjects): 61,539 ± 64,303^a L
- V/F ([2]; HF, female): 64,980 ± 64,481^c L
- V/F ([2]; HF, male): 55,230 ± 69,586^b L
